In one experiment the target is T1, PBP 5 (dacA) (Escherichia coli, UniProt P0AEB2).
T1 construct: made in house; host or cells: E. coli
Kind of experiment: PBP inhibition assay (nitrocefin substrate), PBP 5. Type of experiment: biochemical. The protocol:
(§1) Kinetic and inhibition analyses, and ^19F NMR studies[10] against bacterial β-lactamases were performed as described. The FC-5 cephalosporin[9] was used as substrate for BcII, VIM-2, IMP-1, NDM-1, SPM-1, TEM-1 and OXA-10, meropenem[28] for CphA and nitrocefin[34] for PBP 3 and PBP 5.
In brief IC50 values were determined by preincubation of the appropriate amount of enzyme with the cyclic boronates in the assay buffers for 10 min at room temperature prior to the initiation of the assay by the addition of the appropriate substrate. The enzyme concentrations used are the following: 1 nM BcII, 100 nM VIM-2, 10 nM IMP-1, 10 nM NDM-1, 1 nM SPM-1, 1 nM TEM-1, 1 nM OXA-10, 2.5 nM CphA, 4 μM PBP 3 and 5 μM PBP 5; note that the final concentrations are stated. […]
The experiments were performed using a PHERAstar FS microplate reader (BMG Labtech) at room temperature (24–25 °C). […] The IC50 values were determined using the software package Graph Prism 5.

The target in a further experiment is T2, NDM-1 (Klebsiella pneumoniae, UniProt C7C422).
T2 construct: made in house; host or cells: E. coli
Kind of experiment: Fluorogenic β-lactamase inhibition assay (FC-5 substrate), NDM-1. It counts as biochemical. How it is done:
as §1
(§2) In brief IC50 values were determined by preincubation of the appropriate amount of enzyme with the cyclic boronates in the assay buffers for 10 min at room temperature prior to the initiation of the assay by the addition of the appropriate substrate. The enzyme concentrations used are the following: 1 nM BcII, 100 nM VIM-2, 10 nM IMP-1, 10 nM NDM-1, 1 nM SPM-1, 1 nM TEM-1, 1 nM OXA-10, 2.5 nM CphA, 4 μM PBP 3 and 5 μM PBP 5; note that the final concentrations are stated. The assay buffers used are the following: 50 mM HEPES, pH 7.2 supplemented with 1 μg BSA, 1 μg ZnSO4 and 0.01% Triton for BcII, VIM-2, IMP-1, NDM-1 and SPM-1, 15 mM MES, pH 6.5 for CphA, 50 mM HEPES, pH 7.2 supplemented with 200 mM NaCl and 0.01% Triton 100 for TEM-1, 100 mM sodium phosphate, pH 7.2 supplemented with 50 mM NaHCO3 and 0.01% Triton 100 for OXA-10 and 50 mM HEPES, pH 7.2 supplemented with 200 mM NaCl and 0.01% Triton 100 for PBP 3 and PBP 5. The amount of substrates used is the following: 5 μM for BcII, VIM-2, IMP-1, NDM-1 and SPM-1, 10 μM for TEM-1 and OXA-10, 125 μM for CphA and 25 μM for PBP 3 and PBP 5; note that the final concentrations are stated.
(§3) The experiments were performed using a PHERAstar FS microplate reader (BMG Labtech) at room temperature (24–25 °C). All enzymes and inhibitors were prepared in the specific assay buffer. The kinetic values in this study are the means from at least three independent measurements; at least nine different concentrations of the inhibitor were used to determine the kinetic parameters (IC50). The IC50 values were determined using the software package Graph Prism 5.

Another experiment addresses T3, OXA-10 (Pseudomonas aeruginosa, UniProt P14489).
T3 construct: made in house; host or cells: E. coli
Kind of experiment: Fluorogenic β-lactamase inhibition assay (FC-5 substrate), OXA-10. It counts as biochemical. How it is done: as §1, §2, §3

The next experiment concerns the target M67C NDM-1 (Klebsiella pneumoniae, UniProt C7C422, M67C). Kind of experiment: 19F-protein NMR binding study. The settings on record: M67C NDM-1 labelled with 1,1,1-trifluoro-3-bromo acetone. The protocol: as §1
Supplementary Fig. 1. 19F NMR analyses of the NDM-1*-di-Zn(II)-2 complex. Titration using 2 gave rise to a new signal corresponding to a 2-NDM-1* complex, even at low concentrations of 2 indicating tight binding; at a 1:1, enzyme:inhibitor ratio (NDM-1*:2) no signals corresponding to uncomplexed NDM-1* species were observed. NDM-1* = NDM-1 M67C variant modified by reaction with BrCH COCF 1.
Supplementary Fig. 2. Cytotoxicity of 1,2 and Staurosporine (a control) using HEK293 cells.
(also on this page, place not known: enzyme: inhibitor NDM -1 BrCH2COCF3 -2 -1 0 1 0.5 1.0 1.5 - Log concentration (µM) Abs 490 HEK293 - 2 HEK293 - 1 Staurosporine HEK293) […]

The next experiment addresses T4, BcII (Bacillus cereus, UniProt P04190).
T4 construct: made in house; host or cells: E. coli
Kind of experiment: Fluorogenic β-lactamase inhibition assay (FC-5 substrate), BcII. It counts as biochemical. How it is done:
as §1, §2, §3

Another experiment deals with SPM-1 (Pseudomonas aeruginosa, UniProt Q8G9Q0). Kind of experiment: Fluorogenic β-lactamase inhibition assay (FC-5 substrate), SPM-1. Type of experiment: biochemical. The protocol: as §1, §2, §3
A further experiment deals with T5, CphA (Aeromonas hydrophila, UniProt P26918).
T5 construct: made in house; host or cells: E. coli
Kind of experiment: B2 MBL inhibition assay (meropenem substrate), CphA. It counts as biochemical, Aeromonas hydrophilia. How it is done: as §1, §2, §3

A further experiment addresses T6, PBP 3 (Pseudomonas aeruginosa, UniProt G3XD46).
T6 construct: made in house; host or cells: E. coli
Nature of the experiment: PBP inhibition assay (nitrocefin substrate), PBP 3. To be noted: NI = no inhibition at 100 μM, read-out: IC50 (μM)/pIC50 (converted). It counts as biochemical. How it is done: as §1, §2, §3

A further experiment concerns K. pneumoniae IR8. Kind of experiment: microbe, parasite or virus in culture. Type of experiment: cell-based. To be noted: Klebsiella pneumoniae; 2 alone; K. pneumoniae IR8 (blaSHV-1; blaDHA-1; blaCTX-M-15; blaTEM-1; blaNDM-1); read-out: 2 MIC. The source says:
Bacterial strains: E. coli ATCC 25922 (ref. [35]) and K. pneumoniae NCTC 5055 (ref. [36]) were used as reference strains. K. pneumoniae Ecl8 (ref. [16]) and its ramR knock-out[37] were used as previously described. K. pneumoniae strain IR8 (ref. [40]), and E. coli strains IR10 and IR60 (ref. [17]) were generous gifts of Prof. T.R. Walsh. Plasmid pSU18:NDM-1 contains the complete blaNDM-1 open reading frame, together with its promoter, cloned into plasmid pSU18 (ref. [41]). The recombinant plasmid was made by PCR amplifying the blaNDM-1 gene and surrounding sequences from E. coli IR10 with primers NDM1F 5′- […] -3′ and NDM1R 5′- GGCGATGACAGCATCATC -3′, TA cloning the amplicon into pCR2.1 TOPO (Invitrogen) and subcloning into pSU18 using BamHI and XbaI.
MIC values were determined by broth microdilution, in triplicate, in cation-adjusted Mueller Hinton broth (Sigma) according to the Clinical Laboratory Standards Institute (CLSI) guidelines. Experiments were carried out in microtitre plates (Corning) containing the medium plus meropenem (Sequoia Research Products, Pangbourne, UK) and/or inhibitor 2 as appropriate. Chloramphenicol (20 μg ml^−1) was included in assays of strains (K. pneumoniae Ecl8 and derivative) that carried pSU18 plasmids or derivatives (pSU18:NDM-1) to ensure maintenance of plasmids throughout. Inhibitor 2 was dissolved in DMSO to 100 mg ml^−1 and diluted in broth. The final concentration of DMSO in the assays was kept constant at 0.01% (experiments using 10 μg ml^−1 inhibitor) or 0.03% (experiments using 25 μg ml^−1 inhibitor). Plates were incubated overnight at 37 °C for 18–24 h and absorbance at 600 nm read using a Polarstar Omega (BMG LabTech) plate reader.

The target of a further experiment is T7, VIM-2 (Escherichia coli, UniProt Q5U7L7).
T7 construct: made in house; host or cells: E. coli
Nature of the experiment: Fluorogenic β-lactamase inhibition assay (FC-5 substrate), VIM-2. It counts as biochemical. The protocol:
as §1, §2, §3

Some results are limits rather than exact numbers.

The term pIC50 denotes −log10 of the IC50, conventionally taken in molar units. A low value points to a large IC50.

As for `NCc1ccc(C(=O)N[C@H]2Cc3cccc(C(=O)O)c3O[B-]2(O)O)cc1` [compound 2], the pIC50 against PBP 5 (dacA) is given as 8.7; against NDM-1, 7.5; against OXA-10, 5.2; against BcII, 6.5; against SPM-1, 4.7; against CphA, greater than 4. In addition, the pIC50 on VIM-2 is 8.5. In addition, the IC50 at PBP 5 (dacA) (10 min preincubation) was 0.0016 µM; against NDM-1 (10 min preincubation), 0.029 µM; against OXA-10 (10 min preincubation), 5.1 µM; on BcII (10 min preincubation), 0.3 µM; against SPM-1 (10 min preincubation), 16.7 µM; at CphA (10 min preincubation), greater than 100 µM. Also, the IC50 at PBP 3 was greater than 100 µM; at VIM-2 (10 min preincubation) it was 0.003 µM. The “binding to the active site by 19F NMR titration” value on M67C NDM-1 was “tight binding”. In the experiment with K. pneumoniae IR8, the MIC is greater than 128 µg/mL.

The record behind these values is PMC4979060, “Structural basis of metallo-β-lactamase, serine-β-lactamase and penicillin-binding protein inhibition by cyclic boronates” (Nature Communications, 2016).
